Reference: US11560400B2, “Salts of diphosphate phosphoramidate of nucleosides as anticancer compounds” (NuCana plc, priority 2017, dated 2023)
Entries after “also recorded” stand apart in the source; their conditions may differ. Like-named read-outs stand apart in the source and are kept apart here.

Tests used:
HL-60 = assay: CellTiterGlo cell viability assay, HL-60; type: cell-based; details: HL-60, 72 h; for EC50: read-out: Ab EC50
Summary of the method: (§1)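 72 h CTG viability; 9-pt, 3.16-fold titration, 198 μM top to 19.8 nM final; duplicates; 0.5% DMSO final; standard growth conditions. Read-out: absolute EC50 and % inhibition at highest concentration.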

MCF-7 = assay: CellTiterGlo cell viability assay, MCF-7; type: cell-based; details: Homo sapiens, MCF7, 72 h, MCF-7, 72 h; for EC50: read-out: Ab EC50
Summary of the method: as §1

HepG2 = assay: CellTiterGlo cell viability assay, HepG2; type: cell-based; details: Homo sapiens, HepG2, 72 h; for EC50: read-out: Ab EC50
Summary of the method: as §1

HT29 = assay: CellTiterGlo cell viability assay, HT29; type: cell-based; details: Homo sapiens, HT-29, 72 h, HT29, 72 h; for EC50: read-out: Ab EC50
Summary of the method: as §1

in vitro = details: human, pooled cryopreserved hepatocytes, pH 7.3
MOLT-4 = assay: CellTiterGlo cell viability assay, MOLT-4; type: cell-based; details: MOLT-4, 72 h; for EC50: read-out: Ab EC50
Summary of the method: as §1

KG1a cells = assay: In vitro cytotoxicity, Annexin V/propidium iodide assay in KG1a cells; type: cell-based; details: for change of potency (mean LD50) under hypoxic versus normoxic conditions: 5% oxygen
Procedure: The acute myeloid leukaemia (AML) KG1a cell line was maintained in RPMI medium (Invitrogen, Paisley, UK) supplemented with 100 units/mL penicillin, 100 μg/mL streptomycin and 20% foetal calf serum. Cells were subsequently aliquoted (10^5 cells/100 μL) into 96-well plates and were incubated at 37° C. in a humidified normoxic (20% oxygen) or hypoxic (1% or 5% oxygen) atmosphere for 48 h in the presence of clofarabine, or clofarabine diphosphate phosphoramidates of the invention (1×10^−10M-1×10^−6M). In addition, control cultures were carried out to which no drug was added. Cells were subsequently harvested by centrifugation and were analysed by flow cytometry using the Annexin V assay.
Cultured cells were harvested by centrifugation and then resuspended in 195 μL of calcium-rich buffer. Subsequently, 5 μL of Annexin V (Caltag Medsystems, Botolph Claydon, UK) was added to the cell suspension and cells were incubated in the dark for 10 mins prior to washing. Cells were finally resuspended in 190 μL of calcium-rich buffer together with 10 μL of propidium iodide. Apoptosis was assessed by dual-colour immunofluorescent flow cytometry as described previously. Subsequently LD50 values (the dose required to kill 50% of the cells in a culture) were calculated for each nucleoside analogue and diphosphate phosphoramidate.
The data obtained in these experiments were evaluated using one-way ANOVA. All data was confirmed as Gaussian or a Gaussian approximation using the omnibus K2 test. LD50 values were calculated from the non-linear regression and line of best-fit analysis of the sigmoidal dose-response curves. All statistical analyses were performed using Graphpad Prism 6.0 software (Graphpad Software Inc., San Diego, Calif.).
The in vitro drug sensitivity of KG1a cells was assessed using the Annexin V/propidium iodide assay.

RPMI-8226 = assay: CellTiterGlo cell viability assay, RPMI-8226; type: cell-based, Human; details: Homo sapiens, RPMI-8226, 72 h; for EC50: read-out: Ab EC50
Summary of the method: as §1

OVCAR 3 = assay: CellTiterGlo cell viability assay, OVCAR 3; type: cell-based; details: for EC50: OVCAR 3, 72 h, read-out: Ab EC50
Summary of the method: as §1

K562 = assay: CellTiterGlo cell viability assay, K562; type: cell-based; details: for EC50: read-out: Ab EC50
Summary of the method: as §1

RL = assay: CellTiterGlo cell viability assay, RL; type: cell-based; details: Homo sapiens, 72 h; for EC50: read-out: Ab EC50
Summary of the method: as §1

KG-1 = assay: CellTiterGlo cell viability assay, KG-1; type: cell-based; details: Homo sapiens, KG-1, 72 h
Summary of the method: as §1

[1] = Homo sapiens, percentage inhibition at the highest concentration tested, read-out: Top Inh
[2] = percentage inhibition at the highest concentration tested, read-out: Top Inhibit
[3] = percentage inhibition at the highest concentration tested, read-out: Top Inh

With `Nc1nc(Cl)nc2c1ncn2[C@@H]1O[C@H](CO)[C@@H](O)[C@@H]1F` [Clofarabine, reference compound] the EC50 (HL-60; Table 4 classes) was under 0.2 µM, the EC50 (HL-60; Homo sapiens, Table 3 classes) was under 0.2 µM and the inhibition at 198 µM (HL-60; [1]) was 97%. The EC50 (MCF-7; Table 3 classes) was 0.2 to 2 µM, the EC50 (MCF-7; Table 4 classes) was 0.2 to 1 µM and the inhibition at 198 µM (MCF-7; [2]) was 55%. For the same molecule, the EC50 (HepG2; Table 3 classes) was 2 to 5 µM, the EC50 (HepG2; Table 4 classes) was 1 to 5 µM and the inhibition at 198 µM (HepG2; [2]) was 64%. The EC50 (HT29; Table 3 classes) was 0.2 to 2 µM, the EC50 (HT29; Table 4 classes) was 0.2 to 1 µM and the inhibition at 198 µM (HT29; [2]) was 64%. For the same molecule, the half-life at 1 μM (in vitro) was over 2 h, the inhibition at 198 µM (MOLT-4; [1]) was 84.1% and the EC50 (MOLT-4; Homo sapiens, Table 3 classes) was under 0.2 µM. The EC50 (MOLT-4; Table 4 classes) was under 0.2 µM, the “change of potency (mean LD50) under hypoxic versus normoxic conditions” value (KG1a cells; in words) was “significant loss in potency under hypoxic conditions; also recorded: significant reduction in potency” and the “change of potency (mean LD50) under hypoxic versus normoxic conditions” value (KG1a cells; in words, listed as clofarabine) was “significant increase in mean LD50 under hypoxic conditions; also recorded: significant reduction in potency”. The “Hypoxia Mean LD50” value (KG1a cells; 48 h, hypoxic (5% O2)) was 53.1 nM, the “Mean LD50 (Normoxia Mean LD50)” value (KG1a cells; 48 h, normoxic (20% oxygen)) was 16.9 nM and the “mean LD50 under hypoxic conditions” value (KG1a cells; hypoxic (5% oxygen)) was 53.1 nM. For the same molecule, the “potency in KG1a cells (dose-response curves)” value (KG1a cells; in words) was “highest potency”, the “mean LD50” value (KG1a cells; normoxic) was 16.9 nM and the “Ratio Normoxia/Hypoxia” value (KG1a cells; ratio of mean LD50 values) was 31.8. For the same molecule, the EC50 (RPMI-8226; Table 3 classes) was 5 to 10 µM, the EC50 (RPMI-8226; Table 4 classes) was over 10 µM and the inhibition at 198 µM (RPMI-8226; [3]) was 89%. It also gave an inhibition at 198 µM (OVCAR 3; Homo sapiens, OVCAR-3, 72 h, percentage inhibition at the highest concentration tested, read-out: Top Inhibit) of 48%, an EC50 (OVCAR 3; Homo sapiens, Table 3 classes) of over 10 µM and an EC50 (OVCAR 3; Table 4 classes) of over 10 µM. For the same molecule, the inhibition at 198 µM (K562; Homo sapiens, K562, 72 h, percentage inhibition at the highest concentration tested, read-out: Top Inh) was 23%, the EC50 (K562; Homo sapiens, K562, 72 h, Table 3 classes) was over 10 µM and the EC50 (K562; K 562, 72 h, Table 4 classes) was over 10 µM. The EC50 (RL; Table 3 classes) was 0.2 to 2 µM, the EC50 (RL; Table 4 classes) was 0.2 to 1 µM and the inhibition at 198 µM (RL; [3]) was 77%. It also gave an EC50 (KG-1; Table 4 classes, read-out: Ab EC50) of under 0.2 µM and an inhibition at 198 µM (KG-1; [2]) of 93%.
